This is an account of results in patent US9340590B2 (priority 2011, dated 2016).

Holding throughout (assay): cell-based
In assay [1] the target is hNav1.5 (Homo sapiens, UniProt Q14524). The conditions noted are these: IonWorks Quattro, read-out: IWQ Use Nav1.5.
Assay [2] has as its target hNav1.3 (Homo sapiens, UniProt Q9NY46). The conditions noted are these: IonWorks Quattro, read-out: IWQ Use Nav1.3.
In assay [3] the target is hNav1.7 (Homo sapiens, UniProt Q15858). In kind it is cell-based. The settings on record: IonWorks Quattro. A general note: In patch-clamp work, channel activity is measured electrically.
Setting [4] is: use-dependent, […], read-out: IWQ Use Nav1.7 (μm).
The mark [5] stands for this setting: use-dependent block, hNav1.7, read-out: IWQ Use Nav1.7.

SMILES strings stand for the structures. Like-named read-outs stand apart in the source and are kept apart here. Positions of bridges follow the written chain, without caps; N, C: chain ends. Non-standard residues stand in square brackets, D forms with d. Residues, ends and D or L forms follow the SMILES beside them. 1Nal = N[C@@H](Cc1cccc2ccccc12)C(=O)O; 2Nal = N[C@@H](Cc1ccc2ccccc2c1)C(=O)O; Abu = CC[C@H](N)C(=O)O

Sequence of hNav1.5 (Q14524 whole entry, looked up): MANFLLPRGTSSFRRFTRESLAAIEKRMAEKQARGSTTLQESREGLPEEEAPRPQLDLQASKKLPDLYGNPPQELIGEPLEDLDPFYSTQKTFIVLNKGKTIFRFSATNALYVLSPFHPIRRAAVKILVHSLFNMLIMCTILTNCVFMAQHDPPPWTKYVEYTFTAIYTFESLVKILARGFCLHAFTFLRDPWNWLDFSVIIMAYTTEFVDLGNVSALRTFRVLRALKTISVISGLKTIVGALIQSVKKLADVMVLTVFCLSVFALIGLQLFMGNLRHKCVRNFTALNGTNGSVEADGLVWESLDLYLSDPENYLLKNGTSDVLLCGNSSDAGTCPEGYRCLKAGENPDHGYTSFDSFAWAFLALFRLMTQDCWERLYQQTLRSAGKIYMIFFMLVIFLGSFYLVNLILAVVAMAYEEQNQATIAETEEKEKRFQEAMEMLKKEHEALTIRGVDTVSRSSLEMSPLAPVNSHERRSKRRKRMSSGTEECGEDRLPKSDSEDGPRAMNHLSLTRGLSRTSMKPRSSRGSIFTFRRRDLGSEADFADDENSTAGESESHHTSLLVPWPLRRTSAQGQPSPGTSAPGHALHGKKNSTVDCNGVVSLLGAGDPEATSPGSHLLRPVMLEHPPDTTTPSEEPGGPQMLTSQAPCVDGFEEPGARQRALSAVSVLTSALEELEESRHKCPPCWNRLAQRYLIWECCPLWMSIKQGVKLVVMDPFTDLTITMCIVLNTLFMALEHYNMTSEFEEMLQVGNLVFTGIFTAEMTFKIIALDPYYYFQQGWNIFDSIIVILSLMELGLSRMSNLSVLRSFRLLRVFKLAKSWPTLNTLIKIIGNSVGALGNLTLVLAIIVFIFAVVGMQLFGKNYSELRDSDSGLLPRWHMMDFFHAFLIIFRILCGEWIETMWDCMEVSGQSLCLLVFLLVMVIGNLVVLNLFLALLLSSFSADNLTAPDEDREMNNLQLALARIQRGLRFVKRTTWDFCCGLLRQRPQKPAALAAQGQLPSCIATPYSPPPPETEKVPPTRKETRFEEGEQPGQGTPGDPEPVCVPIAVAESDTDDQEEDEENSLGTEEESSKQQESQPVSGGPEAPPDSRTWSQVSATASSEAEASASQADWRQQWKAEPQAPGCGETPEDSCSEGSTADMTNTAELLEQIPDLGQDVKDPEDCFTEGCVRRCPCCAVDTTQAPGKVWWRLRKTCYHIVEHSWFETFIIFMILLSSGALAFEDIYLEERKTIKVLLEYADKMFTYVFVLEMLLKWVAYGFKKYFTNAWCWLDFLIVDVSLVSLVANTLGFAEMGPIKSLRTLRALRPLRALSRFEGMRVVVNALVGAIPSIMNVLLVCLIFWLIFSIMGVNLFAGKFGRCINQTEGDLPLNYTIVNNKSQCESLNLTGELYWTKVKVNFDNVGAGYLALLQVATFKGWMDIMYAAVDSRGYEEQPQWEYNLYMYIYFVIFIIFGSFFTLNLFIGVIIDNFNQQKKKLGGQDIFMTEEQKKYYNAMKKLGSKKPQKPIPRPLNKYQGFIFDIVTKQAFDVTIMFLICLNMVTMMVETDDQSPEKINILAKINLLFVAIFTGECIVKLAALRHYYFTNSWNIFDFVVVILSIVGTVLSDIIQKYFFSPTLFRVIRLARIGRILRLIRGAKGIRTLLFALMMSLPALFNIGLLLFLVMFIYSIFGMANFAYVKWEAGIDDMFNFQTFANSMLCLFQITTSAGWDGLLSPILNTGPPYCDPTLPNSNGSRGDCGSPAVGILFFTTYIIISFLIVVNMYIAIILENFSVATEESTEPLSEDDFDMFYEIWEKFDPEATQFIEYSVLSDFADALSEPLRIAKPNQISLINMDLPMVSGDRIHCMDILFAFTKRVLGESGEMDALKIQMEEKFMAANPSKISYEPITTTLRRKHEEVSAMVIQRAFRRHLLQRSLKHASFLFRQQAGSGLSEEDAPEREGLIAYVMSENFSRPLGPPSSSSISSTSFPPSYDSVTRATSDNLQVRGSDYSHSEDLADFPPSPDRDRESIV
Sequence of hNav1.3 (Q9NY46 whole entry, looked up): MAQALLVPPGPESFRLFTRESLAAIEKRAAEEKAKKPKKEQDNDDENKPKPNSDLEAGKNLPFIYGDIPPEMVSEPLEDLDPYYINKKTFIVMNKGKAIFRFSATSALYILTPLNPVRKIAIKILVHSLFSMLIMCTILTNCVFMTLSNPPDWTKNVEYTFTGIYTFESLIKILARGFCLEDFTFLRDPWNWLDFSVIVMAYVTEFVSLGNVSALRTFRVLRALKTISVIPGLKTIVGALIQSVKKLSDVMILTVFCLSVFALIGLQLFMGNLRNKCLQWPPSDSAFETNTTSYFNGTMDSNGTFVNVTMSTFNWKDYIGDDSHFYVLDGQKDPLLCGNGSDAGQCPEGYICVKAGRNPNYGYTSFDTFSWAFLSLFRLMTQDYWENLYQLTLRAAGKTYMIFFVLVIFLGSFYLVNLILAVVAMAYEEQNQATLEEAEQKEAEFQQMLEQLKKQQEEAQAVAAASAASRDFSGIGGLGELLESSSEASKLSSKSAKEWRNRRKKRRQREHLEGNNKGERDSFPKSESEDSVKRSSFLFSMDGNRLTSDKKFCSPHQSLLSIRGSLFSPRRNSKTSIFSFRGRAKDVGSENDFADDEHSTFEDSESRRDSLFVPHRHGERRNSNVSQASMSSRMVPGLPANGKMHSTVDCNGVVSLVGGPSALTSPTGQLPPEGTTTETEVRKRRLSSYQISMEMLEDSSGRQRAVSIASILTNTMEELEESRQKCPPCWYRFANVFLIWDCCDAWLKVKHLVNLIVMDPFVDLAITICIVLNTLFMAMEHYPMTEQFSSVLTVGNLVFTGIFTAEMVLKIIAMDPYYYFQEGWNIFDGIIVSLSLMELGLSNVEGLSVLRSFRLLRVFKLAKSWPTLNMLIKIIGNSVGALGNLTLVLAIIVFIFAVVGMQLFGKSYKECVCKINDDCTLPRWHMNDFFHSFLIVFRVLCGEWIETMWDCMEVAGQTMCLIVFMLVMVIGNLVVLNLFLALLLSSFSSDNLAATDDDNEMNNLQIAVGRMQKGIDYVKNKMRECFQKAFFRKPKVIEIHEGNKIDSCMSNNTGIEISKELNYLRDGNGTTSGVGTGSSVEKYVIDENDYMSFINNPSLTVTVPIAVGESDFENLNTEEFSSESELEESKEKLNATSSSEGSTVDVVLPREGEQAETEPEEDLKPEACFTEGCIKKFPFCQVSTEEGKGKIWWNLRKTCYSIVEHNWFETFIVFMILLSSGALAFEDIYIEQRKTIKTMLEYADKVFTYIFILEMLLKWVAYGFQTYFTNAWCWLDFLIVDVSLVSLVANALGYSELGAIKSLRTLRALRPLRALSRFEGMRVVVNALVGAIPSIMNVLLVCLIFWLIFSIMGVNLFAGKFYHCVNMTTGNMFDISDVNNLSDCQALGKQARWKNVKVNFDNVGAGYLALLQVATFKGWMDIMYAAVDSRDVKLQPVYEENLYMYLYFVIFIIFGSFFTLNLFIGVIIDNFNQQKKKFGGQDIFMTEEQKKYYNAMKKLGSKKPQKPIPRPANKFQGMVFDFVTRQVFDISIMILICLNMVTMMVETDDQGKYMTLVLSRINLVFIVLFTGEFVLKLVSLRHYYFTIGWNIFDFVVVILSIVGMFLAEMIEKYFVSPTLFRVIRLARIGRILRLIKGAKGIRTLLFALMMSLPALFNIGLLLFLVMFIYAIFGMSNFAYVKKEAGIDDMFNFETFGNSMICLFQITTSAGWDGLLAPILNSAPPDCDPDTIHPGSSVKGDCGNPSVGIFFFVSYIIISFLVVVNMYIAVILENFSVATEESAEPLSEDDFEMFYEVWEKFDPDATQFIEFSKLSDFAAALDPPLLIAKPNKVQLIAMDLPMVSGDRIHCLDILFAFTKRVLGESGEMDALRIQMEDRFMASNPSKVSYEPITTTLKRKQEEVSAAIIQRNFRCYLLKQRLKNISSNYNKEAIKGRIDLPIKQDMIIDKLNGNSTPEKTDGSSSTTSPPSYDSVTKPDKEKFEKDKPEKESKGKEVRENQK

In the case of `CC[C@H](C)[C@@H]1NC(=O)[C@@H]2CSSC[C@@H]3NC(=O)[C@H](C(C)C)NC(=O)[C@H](CC(C)C)NC(=O)[C@H](CC(N)=O)NC(=O)[C@@H]4CCCN4C(=O)[C@H](CCCNC(=N)N)NC(=O)[C@H](CSSC[C@H](NC(=O)[C@@H](N)CC(=O)O)C(=O)N[C@@H](CC(C)C)C(=O)NCC(=O)N[C@@H](Cc4ccccc4)C(=O)N[C@@H](CCSC)C(=O)N[C@@H](CCCNC(=N)N)C(=O)N[C@@H](CCCCN)C(=O)N2)NC(=O)[C@H](CSSC[C@@H](C(=O)N[C@@H](CCCCN)C(=O)N[C@@H](Cc2ccc(O)cc2)C(=O)N[C@H](C(=O)N[C@@H](Cc2ccc4ccccc4c2)C(N)=O)C(C)C)NC(=O)[C@H](Cc2c[nH]c4ccccc24)NC(=O)[C@H](CCCCN)NC(=O)[C@H](Cc2c[nH]cn2)NC(=O)[C@H]([C@@H](C)O)NC(=O)[C@H](CCCNC(=N)N)NC(=O)[C@H](CO)NC3=O)NC(=O)[C@H](CCCCN)NC(=O)[C@H](CC(=O)O)NC(=O)[C@H](CC(N)=O)NC(=O)[C@H](CC(=O)O)NC(=O)[C@@H]2CCCN2C1=O` [compound 130] (H-DCLGFMRKCIPDNDKCCRPNLVCSRTHKWCKYV[2Nal]-NH2; disulfide 2-17, 9-23, 16-30), the IC50 was 3590 nM in assay [1] (use-dependent, […]); 20 nM in assay [2] (use-dependent, […]); 40 nM in assay [3] (use-dependent, […], read-out: IWQ Use Nav1.7).

As to `CC[C@H](C)[C@@H]1NC(=O)[C@@H]2CSSC[C@@H]3NC(=O)[C@H](C(C)C)NC(=O)[C@H](CC(C)C)NC(=O)[C@H](CC(N)=O)NC(=O)[C@@H]4CCCN4C(=O)[C@H](CCCNC(=N)N)NC(=O)[C@H](CSSC[C@H](NC(=O)[C@@H](N)CC(=O)O)C(=O)N[C@@H](CC(C)C)C(=O)NCC(=O)N[C@@H](Cc4ccccc4)C(=O)N[C@@H](CCSC)C(=O)N[C@@H](CCCNC(=N)N)C(=O)N[C@@H](CCCCN)C(=O)N2)NC(=O)[C@H](CSSC[C@@H](C(=O)N[C@@H](CCCCN)C(=O)N[C@@H](Cc2ccc(O)cc2)C(=O)N[C@H](C(=O)N[C@@H](Cc2ccccc2)C(=O)N[C@@H](Cc2ccc4ccccc4c2)C(N)=O)C(C)C)NC(=O)[C@H](Cc2c[nH]c4ccccc24)NC(=O)[C@H](CCCCN)NC(=O)[C@H](Cc2c[nH]cn2)NC(=O)[C@H]([C@@H](C)O)NC(=O)[C@H](CCCNC(=N)N)NC(=O)[C@H](CO)NC3=O)NC(=O)[C@H](CCCCN)NC(=O)[C@H](CC(=O)O)NC(=O)[C@H](CC(N)=O)NC(=O)[C@H](CC(=O)O)NC(=O)[C@@H]2CCCN2C1=O` [compound 131], the IC50 in assay [1] (use-dependent, […]) was determined as 2550 nM; in assay [2] (use-dependent, […]), 20 nM; in assay [3] (setting [4]), 50 nM.

Take `CC[C@H](C)[C@@H]1NC(=O)[C@@H]2CSSC[C@@H]3NC(=O)[C@H](C(C)C)NC(=O)[C@H](CC(C)C)NC(=O)[C@H](CC(N)=O)NC(=O)[C@@H]4CCCN4C(=O)[C@H](CCCNC(=N)N)NC(=O)[C@H](CSSC[C@H](NC(=O)[C@@H](N)CC(=O)O)C(=O)N[C@@H](CC(C)C)C(=O)NCC(=O)N[C@@H](Cc4ccccc4)C(=O)N[C@@H](CCSC)C(=O)N[C@@H](CCCNC(=N)N)C(=O)N[C@@H](CCCCN)C(=O)N2)NC(=O)[C@H](CSSC[C@@H](C(=O)N[C@@H](CCCCN)C(=O)N[C@@H](Cc2ccc(O)cc2)C(=O)N[C@H](C(=O)N[C@@H](Cc2ccccc2)C(=O)N[C@@H](Cc2c[nH]c4ccccc24)C(=O)O)C(C)C)NC(=O)[C@H](Cc2c[nH]c4ccccc24)NC(=O)[C@H](CCCCN)NC(=O)[C@H](Cc2c[nH]cn2)NC(=O)[C@H]([C@@H](C)O)NC(=O)[C@H](CCCNC(=N)N)NC(=O)[C@H](CO)NC3=O)NC(=O)[C@H](CCCCN)NC(=O)[C@H](CC(=O)O)NC(=O)[C@H](CC(N)=O)NC(=O)[C@H](CC(=O)O)NC(=O)[C@@H]2CCCN2C1=O` [compound 133]: the IC50 in assay [1] (use-dependent, […]) is 8280 nM; in assay [2] (use-dependent, […]), 110 nM; in assay [3] (setting [4]), 480 nM.

Consider `CC[C@@H]1NC(=O)[C@H](CCCCN)NC(=O)[C@H](CCCNC(=N)N)NC(=O)[C@H](CCSC)NC(=O)[C@H](Cc2ccccc2)NC(=O)CNC(=O)[C@H](CC(C)C)NC(=O)[C@@H](NC(=O)[C@@H](N)CC(=O)O)CSSC[C@@H]2NC(=O)[C@H](CSSC[C@@H](C(=O)N[C@@H](CCCCN)C(=O)N[C@@H](Cc3ccc(O)cc3)C(=O)N[C@H](C(=O)N[C@@H](Cc3ccccc3)C(N)=O)C(C)C)NC(=O)[C@H](Cc3c[nH]c4ccccc34)NC(=O)[C@H](CCCCN)NC(=O)[C@H](Cc3c[nH]cn3)NC(=O)[C@H]([C@@H](C)O)NC(=O)[C@H](CCCNC(=N)N)NC(=O)[C@H](CO)NC(=O)[C@H](CC)NC(=O)[C@H](C(C)C)NC(=O)[C@H](CC(C)C)NC(=O)[C@H](CC(N)=O)NC(=O)[C@@H]3CCCN3C(=O)[C@H](CCCNC(=N)N)NC2=O)NC(=O)[C@H](CCCCN)NC(=O)[C@H](CC(=O)O)NC(=O)[C@H](CC(N)=O)NC(=O)[C@H](CC(=O)O)NC(=O)[C@@H]2CCCN2C(=O)[C@H]([C@@H](C)CC)NC1=O` [compound 135] (H-DCLGFMRK[Abu]IPDNDKCCRPNLV[Abu]SRTHKWCKYVF-NH2; disulfide 2-17, 16-30), for which the IC50 stood at 9210 nM in assay [1] (use-dependent block, hNav1.5); 12300 nM in assay [2] (use-dependent block, hNav1.3); 8140 nM in assay [3] (setting [5]).

As to `CC[C@H](C)[C@@H]1NC(=O)[C@@H]2CSSC[C@@H]3NC(=O)[C@H](C(C)C)NC(=O)[C@H](CC(C)C)NC(=O)[C@H](CC(N)=O)NC(=O)[C@@H]4CCCN4C(=O)[C@H](CCCNC(=N)N)NC(=O)[C@H](CSSC[C@H](NC(=O)[C@@H](N)CC(=O)O)C(=O)N[C@@H](CC(C)C)C(=O)NCC(=O)N[C@@H](Cc4ccc5ccccc5c4)C(=O)N[C@@H](CCSC)C(=O)N[C@@H](CCCNC(=N)N)C(=O)N[C@@H](CCCCN)C(=O)N2)NC(=O)[C@H](CSSC[C@@H](C(=O)N[C@@H](CCCCN)C(=O)N[C@@H](Cc2ccc(O)cc2)C(=O)N[C@H](C(=O)N[C@@H](Cc2ccc4ccccc4c2)C(N)=O)C(C)C)NC(=O)[C@H](Cc2c[nH]c4ccccc24)NC(=O)[C@H](CCCCN)NC(=O)[C@H](Cc2c[nH]cn2)NC(=O)[C@H]([C@@H](C)O)NC(=O)[C@H](CCCNC(=N)N)NC(=O)[C@H](CO)NC3=O)NC(=O)[C@H](CCCCN)NC(=O)[C@H](CC(=O)O)NC(=O)[C@H](CC(N)=O)NC(=O)[C@H](CC(=O)O)NC(=O)[C@@H]2CCCN2C1=O` [compound 136] (H-DCLG[2Nal]MRKCIPDNDKCCRPNLVCSRTHKWCKYV[2Nal]-NH2; disulfide 2-17, 9-23, 16-30), the IC50 in assay [1] (use-dependent block, hNav1.5) worked out at 5140 nM; in assay [2] (use-dependent block, hNav1.3), 30 nM; in assay [3] (setting [5]), 140 nM.

As to `CC[C@H](C)[C@@H]1NC(=O)[C@@H]2CSSC[C@@H]3NC(=O)[C@H](C(C)C)NC(=O)[C@H](CC(C)C)NC(=O)[C@H](CC(N)=O)NC(=O)[C@@H]4CCCN4C(=O)[C@H](CCCNC(=N)N)NC(=O)[C@H](CSSC[C@H](NC(=O)[C@@H](N)CC(=O)O)C(=O)N[C@@H](CC(C)C)C(=O)NCC(=O)N[C@@H](Cc4ccc5ccccc5c4)C(=O)N[C@@H](CCSC)C(=O)N[C@@H](CCCNC(=N)N)C(=O)N[C@@H](CCCCN)C(=O)N2)NC(=O)[C@H](CSSC[C@@H](C(=O)N[C@@H](CCCCN)C(=O)N[C@@H](Cc2ccc(O)cc2)C(=O)N[C@H](C(=O)N[C@@H](Cc2cccc4ccccc24)C(N)=O)C(C)C)NC(=O)[C@H](Cc2c[nH]c4ccccc24)NC(=O)[C@H](CCCCN)NC(=O)[C@H](Cc2c[nH]cn2)NC(=O)[C@H]([C@@H](C)O)NC(=O)[C@H](CCCNC(=N)N)NC(=O)[C@H](CO)NC3=O)NC(=O)[C@H](CCCCN)NC(=O)[C@H](CC(=O)O)NC(=O)[C@H](CC(N)=O)NC(=O)[C@H](CC(=O)O)NC(=O)[C@@H]2CCCN2C1=O` [compound 137] (H-DCLG[2Nal]MRKCIPDNDKCCRPNLVCSRTHKWCKYV[1Nal]-NH2; disulfide 2-17, 9-23, 16-30), the IC50 in assay [1] (use-dependent block, hNav1.5) worked out at 3150 nM; in assay [2] (use-dependent block, hNav1.3) it was 20 nM; in assay [3] (setting [5]) it was 110 nM.

`CC[C@H](C)[C@@H]1NC(=O)[C@@H]2CSSC[C@@H]3NC(=O)[C@H](C(C)C)NC(=O)[C@H](CC(C)C)NC(=O)[C@H](CC(N)=O)NC(=O)[C@@H]4CCCN4C(=O)[C@H](CCCNC(=N)N)NC(=O)[C@H](CSSC[C@H](NC(=O)[C@@H](N)CC(=O)O)C(=O)N[C@@H](CC(C)C)C(=O)NCC(=O)N[C@@H](Cc4ccccc4)C(=O)N[C@@H](CCSC)C(=O)N[C@@H](CCCNC(=N)N)C(=O)N[C@@H](CCCCN)C(=O)N2)NC(=O)[C@H](CSSC[C@@H](C(=O)N[C@@H](CCCCN)C(=O)N[C@@H](Cc2ccc(O)cc2)C(=O)N[C@H](C(=O)N[C@@H](Cc2cccc4ccccc24)C(=O)N[C@@H](Cc2c[nH]c4ccccc24)C(N)=O)C(C)C)NC(=O)[C@H](Cc2c[nH]c4ccccc24)NC(=O)[C@H](CCCCN)NC(=O)[C@H](Cc2c[nH]cn2)NC(=O)[C@H]([C@@H](C)O)NC(=O)[C@H](CCCNC(=N)N)NC(=O)[C@H](CO)NC3=O)NC(=O)[C@H](CCCCN)NC(=O)[C@H](CC(=O)O)NC(=O)[C@H](CC(N)=O)NC(=O)[C@H](CC(=O)O)NC(=O)[C@@H]2CCCN2C1=O` [compound 138] (H-DCLGFMRKCIPDNDKCCRPNLVCSRTHKWCKYV[1Nal]W-NH2; disulfide 2-17, 9-23, 16-30): the IC50 in assay [1] (use-dependent block, hNav1.5) was found to be 2570 nM; in assay [2] (use-dependent block, hNav1.3), 70 nM; in assay [3] (setting [5]), 130 nM.
